Reference: US20100234220A1, “Oxooxetanes as Fungicidal Agents” (Bayer CropScience AG, priority 2006, published 2010)

Columns and labels:
Venturia inaequalis = experiment: Venturia test (apple)/protective; assay type: in vivo; conditions: protective, 100 ppm, evaluation 10 days after inoculation
Experimental: Venturia Test (Apple)/Protective [table] To produce a suitable preparation of active compound, 1 part by weight of active compound is mixed with the stated amounts of solvents and emulsifier, and the concentrate is diluted with water to the desired concentration. To test for protective activity, young plants are sprayed with the preparation of active compound at the stated application rate. After the spray coating has dried on, the plants are inoculated with an aqueous conidia suspension of the apple scab pathogen Venturia inaequalis and then remain in an incubation cabin at about 20° C. and 100% relative atmospheric humidity for 1 day. The plants are then placed in a greenhouse at about 21° C. and a relative atmospheric humidity of about 90%.

[1] = logP determination by HPLC (gradient method, 0.08% HCO2H)

Compound | efficacy (Venturia inaequalis) | chromatographic logP [1]
CC[C@H](C)[C@@H]1C(=O)O[C@H]1C(=O)NCc1cc(OC)cc(OC)c1 [Example 1, (3S)-(1S-Methylpropyl)-(2R)-(3,5-dimethoxybenzylaminocarbonyl)-4-oxooxetane] | ≥ 70% | 
CC[C@H](C)[C@@H]1C(=O)O[C@H]1C(=O)NCc1ccc(Cl)cc1 [Example 2, (2R,3S)—N-(4-chlorobenzyl)-3-[(1S)-1-methylpropyl]-4-oxooxetane-2-carboxamide] |  | 3.04
CC[C@H](C)[C@@H]1C(=O)O[C@H]1C(=O)Nc1cc(OC)c(OC)c(OC)c1 [Example 3, (2R,3S)-3-[(1S)-1-methylpropyl]-4-oxo-N-(3,4,5-trimethoxyphenyl)oxetane-2-carboxamide] |  | 2.5
